“And” between values parts separate entries of the source, which are not always exact repeats. Identical values can stand only once. Like-named read-outs stand apart in the source and are kept apart here.

Experiment [1] has as its target human thrombin (Homo sapiens, UniProt P00734). Kind of experiment: Inhibition of amidolytic activity of human thrombin (Ki, fluorogenic substrate Tos-Gly-Pro-Arg-AMC). It counts as biochemical. Here is the method:
In an assay to determine the inhibitory dissociation constant, Ki, for a given compound, a chromogenic or fluorogenic substrate of thrombin would be added to a solution containing a test compound and thrombin; the resulting catalytic activity of the enzyme would be spectrophotometrically determined. This type of assay is well known to those skilled in the art.
Determination of K1 Values for Heterocyclics
The steady-state velocity was then measured for a few minutes. The compounds of this invention were also pre-incubated with thrombin for 20 minutes at room temperature before adding the substrate.

Experiment [2] relates to carotid artery in rats. Kind of experiment: FeCl3 induced carotid arterial injury model (arterial thrombosis) in rats, time to occlusion. The note with it: Table 2. In kind it is in vivo, rat (Sprague-Dawley). Here is the method: Arterial Thrombosis Model
FeCl3 Induced Carotid Arterial Injury Model
Animals were laid on a 37° C. heating pad. The carotid artery was exposed through a midline cervical incision. Careful blunt dissection was used to isolate the vessel from the carotid sheath. […] A temperature probe (Physitemp*MT23/3) was placed between one of the pieces of tubing and the artery. Injury was induced by topical application on the carotid artery above the temperature probe of a small disc (3 mm dia.) of Whatman* No. 1 filter paper previously dipped in a 35% solution of FeCl3 […]. The vessel temperature was monitored for 60 minutes after application of FeCl3 as an indication of blood flow.
The time between the FeCl3 application and the time at which the vessel temperature decreased abruptly (>2.4° C.) was recorded as the time to occlusion of the vessel. Inhibitor compounds were given as an iv bolus (mg/kg) followed immediately by an iv infusion (μg/kg/min. via femoral vein). The dose of inhibitor needed to double the time to occlusion in comparison to control animals in which injury was induced in the absence of inhibitor was determined.

Where [3] appears, read: ivb + inf 0.75-50 (iv bolus mg/kg, infusion μg/kg/min).

The term Ki denotes a dissociation constant, usually derived from enzyme kinetics or from competition with a known ligand. On to `N=C(N)NCCCC(NC(=O)[C@@H]1CSC2CC[C@@H](Cc3ccccc3)C(=O)N21)C(=O)CCC(=O)O` (stereo partly drawn) [Compound 0095, 6S-benzylhexahydro-5-oxo-5H-thiazolo[3,2-a]pyridine-3R-carboxamido((propanoic acid)ketoarginine)], for which the Ki in experiment [1] (Table 1, read-out: Ki (inhibitory dissociation constant for human thrombin)) was determined as 26000 nM.
As to `N=C(N)NCCCC(NC(=O)[C@@H]1CSC[C@H]2CC[C@@H](CCc3ccccc3)C(=O)N21)C(=O)c1nccs1` (single isomer, unassigned) [Compound 0940a], the inhibition constant Ki in experiment [1] (Table 2, read-out: Ki) was 16 nM. The “M.O.T (min)+/-sem” value in experiment [2] (setting [3]) came to 15.2 ± 0.82 min.
For `N=C(N)NCCCC(NC(=O)[C@@H]1CS[C@@H]2CC[C@@H](CCCC3CCCCC3)C(=O)N21)C(=O)c1nccs1` (single isomer, unassigned) [Compound 0265b], the Ki in experiment [1] (Table 2, read-out: Ki) stood at 18 nM. The “M.O.T (min)+/-sem” value in experiment [2] (setting [3]) stood at 14.83 ± 2.3 min.
Regarding `N=C(N)NCCCC(NC(=O)[C@@H]1CS[C@@H]2CC[C@@H](Cc3ccccc3)C(=O)N21)C(=O)c1nccs1` (some centres unmarked) [Compound 0245, 6-Benzyl-5-oxo-hexahydro-thiazolo[3,2-a]pyridine-3-carboxylic acid[4-guanidino-1-(thiazole-2-carbonyl)butyl]-amide], the Ki in experiment [1] (Table 2, read-out: Ki) is 5 nM and 8 nM. Moreover, the “M.O.T (min)+/-sem” value was found to be 27 ± 3 min in experiment [2] (ivb + inf 0.5-30 (iv bolus mg/kg, infusion μg/kg/min)) and 22.6 ± 2.6 min in experiment [2] (setting [3]).
As to `Cc1cnc(C(=O)C(CCCNC(=N)N)NC(=O)[C@@H]2CC[C@H]3CN(C(=O)CCc4ccccc4)CC(=O)N32)s1` (some centres unmarked) [Compound 0345, 4-Oxo-2-(3-phenyl-propionyl)-octahydro-pyrrolo[1,2-a]pyrazine-6-carboxylic acid[4-guanidino-1-(5-methyl-thiazole-2-carbonyl)-butyl]-amide], the Ki in experiment [1] (Table 2, read-out: Ki) worked out at 2 nM. In experiment [2] (setting [3]), the “M.O.T (min)+/-sem” value is 50 ± 5.86 min.
Consider `N=C(N)NCCCC(NC(=O)[C@@H]1CSC[C@H]2CC[C@@H](Cc3ccccc3)C(=O)N21)C(=O)c1nccs1` (single isomer, unassigned) [Compound 0925b], for which, in experiment [1] (Table 2, read-out: Ki), the Ki was 30 nM.
As for `N=C(N)NCCCC(NC(=O)[C@@H]1CSCC2CCCC(=O)N21)C(=O)c1nccs1` (some centres unmarked) [Compound 0915, 6-Oxo-octahydro-pyrido[2,1-c][1,4]thiazine-4-carboxylic acid[4-guanidino-1-(thiazole-2-carbonyl)-butyl]-amide], the Ki in experiment [1] (Table 2, read-out: Ki) came out at 1600 nM. In experiment [2] (setting [3]), the “M.O.T (min)+/-sem” value is given as 15+/-1,3 min.
As to `N=C(N)NCCCC(NC(=O)[C@@H]1CSC2CC[C@H](NC(=O)CCc3ccccc3)C(=O)N21)C(=O)c1nccs1` (single isomer, unassigned) [Compound 0305b], the Ki in experiment [1] (Table 2, read-out: Ki) came to 12000 nM.
On the same count and under the same terms, to `N=C(N)NCCCC(NC(=O)[C@@H]1CSC2CC[C@H](NC(=O)CCc3ccccc3)C(=O)N21)C(=O)c1nccs1` (single isomer, unassigned) [Compound 0305a] belongs 220 nM.
As for `N=C(N)NCCCC(NC(=O)[C@@H]1CS(=O)(=O)C[C@H]2CC[C@@H](Cc3ccccc3)C(=O)N21)C(=O)c1nccs1` (single isomer, unassigned) [Compound 0950a], the Ki in experiment [1] (Table 2, read-out: Ki) is 150 nM.
Consider `N=C(N)NCCCC(NC(=O)C1CSC2CCC(NC(=O)CCc3ccccc3)C(=O)N21)C(=O)c1nccs1` (centres unmarked) [Compound 0315b], for which the Ki in experiment [1] (Table 2, read-out: Ki) is 10 nM. Besides, the “M.O.T (min)+/-sem” value in experiment [2] (setting [3]) turned out to be 30.33 ± 8.4 min.
`CC12CCC(Cc3ccccc3)C(=O)N1C(C(=O)NC(CCCNC(=N)N)C(=O)c1nccs1)CS2` (centres unmarked) [Compound 0260, 6-Benzyl-8a-methyl-5-oxo-hexahydro-thiazolo[3,2-a]pyridine-3-carboxylic acid[4-guanidino-1-(thiazole-2-carbonyl)-butyl]-amide]: the “M.O.T (min)+/-sem” value in experiment [2] (setting [3]) was found to be 14.83 ± 0.2 min.
Take `N=C(N)NCCCC(NC(=O)[C@@H]1CS[C@@H]2CC[C@@H](CCCC3CCCCC3)C(=O)N21)C(=O)c1nccs1` (single isomer, unassigned) [Compound 0265a]: the Ki in experiment [1] (Table 2, read-out: Ki) worked out at 4 nM. For the same compound, the “M.O.T (min)+/-sem” value in experiment [2] (setting [3]) turned out to be 21.5 ± 10 min.
On to `N=C(N)NCCCC(NC(=O)[C@@H]1CSC[C@H]2CC[C@@H](CCc3ccccc3)C(=O)N21)C(=O)c1nccs1` (single isomer, unassigned) [Compound 0940b], for which the Ki in experiment [1] (Table 2, read-out: Ki) came out at 160 nM.
For the compound `N=C(N)NCCCC(NC(=O)[C@@H]1CC[C@H]2CN(C(=O)CCc3ccccc3)CC(=O)N21)C(=O)c1nccs1` (some centres unmarked) [Compound 0340, 4-Oxo-2-(3-phenyl-propionyl)-octahydro-pyrrolo[1,2-a]-pyrazine-6-carboxylic acid [4-guanidino-1-(thiazole-2-carbonyl)-butyl]-amide], the Ki in experiment [1] (Table 2, read-out: Ki) stood at 0.6 nM. Moreover, the “M.O.T (min)+/-sem” value in experiment [2] (ivb + inf 0.25-20 (iv bolus mg/kg, infusion μg/kg/min)) was 36+/-9,6 min.
As to `N=C(N)NCCCC(NC(=O)[C@@H]1CS[C@H]2CC[C@@H](Cc3ccccc3)C(=O)N21)C(=O)c1nc2ccccc2s1` (some centres unmarked) [Compound 0210, 6-Benzyl-5-oxo-hexahydro-thiazolo[3,2-a]pyridine-3-carboxylic acid[1-(benzothiazole-2-carbonyl)-4-guanidino-butyl]-amide], the Ki in experiment [1] (Table 2, read-out: Ki) came to 8 nM. Further, the “M.O.T (min)+/-sem” value in experiment [2] (setting [3]) is 20.13 ± 3.4 min.
Turning to `N=C(N)NCCCC(NC(=O)[C@@H]1CS(=O)(=O)C[C@H]2CC[C@@H](Cc3ccccc3)C(=O)N21)C(=O)c1nccs1` (single isomer, unassigned) [Compound 0950b], the Ki in experiment [1] (Table 2, read-out: Ki) is 1000 nM.
Consider `N=C(N)NCCCC(NC(=O)C1CSC2CCC(N3C(=O)c4ccccc4C3=O)C(=O)N21)C(=O)c1nccs1` (single isomer, unassigned) [Compound 0295b], for which the “M.O.T (min)+/-sem” value in experiment [2] (setting [3]) was 19 ± 2.7 min.
Regarding `N=C(N)NCCCC(NC(=O)[C@@H]1CSCC2CC[C@@H](Cc3ccccc3)C(=O)N21)C(=O)c1nccs1` (some centres unmarked) [0925a + b], the Ki in experiment [1] (Table 2, read-out: Ki) came out at 10 nM. In experiment [2] (setting [3]), the “M.O.T (min)+/-sem” value was determined as 19.6 ± 0.2 min.
As for `Cn1ccnc1C(=O)C(CCCNC(=N)N)NC(=O)[C@@H]1CS[C@@H]2CC[C@@H](Cc3ccccc3)C(=O)N21` (some centres unmarked) [Compound 0255, 6-Benzyl-5-oxo-hexahydro-thiazolo[3,2-a]pyridine-3-carboxylic acid[4-guanidino-1-(1-methyl-1H imidazole-2-carbonyl)butyl]-amide], the Ki in experiment [1] (Table 2, read-out: Ki) was determined as 500 nM.
Still for that read-out and setting: the same measure for `N=C(N)NCCCC(NC(=O)[C@@H]1CSCC2CC[C@H](Cc3ccccc3)C(=O)N21)C(=O)c1nccs1` (some centres unmarked) [Compound 0935, 7-Benzyl-6-oxo-octahydro-pyrido[2,1-c][1,4]thiazine-4-carboxylic acid[4-guanidino-1-(thiazole-2-carbonyl)butyl]-amide]: 120 nM.
Take `CC12CCC(CCc3ccccc3)C(=O)N1C(C(=O)NC(CCCNC(=N)N)C(=O)c1nc3ccccc3s1)CS2` (centres unmarked) [Compound 0225, 8a-Methyl-5-oxo-6-phenethyl-hexahydro-thiazolo[3,2-a]pyridine-3-carboxylic acid[1-(benzothiazole-2-carbonyl)-4-guanidino-butyl]-amide]: the “M.O.T (min)+/-sem” value in experiment [2] (setting [3]) was determined as 23 ± 7 min.
In the case of `CC12CCC(Cc3ccc4nc(C(F)(F)F)ccc4c3)C(=O)N1C(C(=O)NC(CCCNC(=N)N)C(=O)c1nccs1)CS2` (centres unmarked) [Compound 0285, 8a-Methyl-5-oxo-6-(2-trifluoromethyl-quinolin-6-ylmethyl)-hexahydro-thiazolo[3,2-a]pyridine-3-carboxylic acid[4-guanidino-1-(thiazole-2-carbonyl)-butyl]-amide], in experiment [2] (setting [3]), the “M.O.T (min)+/-sem” value stood at 11.33 ± 1.34 min.
Take `N=C(N)NCCCC(NC(=O)C1CSC2CCC(NC(=O)CCc3ccccc3)C(=O)N21)C(=O)c1nccs1` (centres unmarked) [0315a + b]: the Ki in experiment [1] (Table 2, read-out: Ki) worked out at 45 nM.

The record behind these values is patent US6057314A, “Low molecular weight bicyclic thrombin inhibitors” (Biochem Pharma Inc., priority 1997, dated 2000).
